Reference: ChEMBL document CHEMBL4387740, “Discovery of ABT-957: 1-Benzyl-5-oxopyrrolidine-2-carboxamides as selective calpain inhibitors with enhanced metabolic stability” (Bioorg Med Chem Lett, 2019)

Tests used:
[1] = Selectivity ratio, ratio of Ki for CatS (unknown origin) to Ki for Cal1 (unknown origin); conditions: Homo sapiens
Homo sapiens [2] = species: Homo sapiens; test: Selectivity ratio, ratio of Ki for CatK (unknown origin) to Ki for Cal1 (unknown origin)
[3] = molecular target: T1, Calpain-1 catalytic subunit (Homo sapiens, UniProt P07384); test: Inhibition of Cal1 (unknown origin)
T1 sequence (P07384 whole entry): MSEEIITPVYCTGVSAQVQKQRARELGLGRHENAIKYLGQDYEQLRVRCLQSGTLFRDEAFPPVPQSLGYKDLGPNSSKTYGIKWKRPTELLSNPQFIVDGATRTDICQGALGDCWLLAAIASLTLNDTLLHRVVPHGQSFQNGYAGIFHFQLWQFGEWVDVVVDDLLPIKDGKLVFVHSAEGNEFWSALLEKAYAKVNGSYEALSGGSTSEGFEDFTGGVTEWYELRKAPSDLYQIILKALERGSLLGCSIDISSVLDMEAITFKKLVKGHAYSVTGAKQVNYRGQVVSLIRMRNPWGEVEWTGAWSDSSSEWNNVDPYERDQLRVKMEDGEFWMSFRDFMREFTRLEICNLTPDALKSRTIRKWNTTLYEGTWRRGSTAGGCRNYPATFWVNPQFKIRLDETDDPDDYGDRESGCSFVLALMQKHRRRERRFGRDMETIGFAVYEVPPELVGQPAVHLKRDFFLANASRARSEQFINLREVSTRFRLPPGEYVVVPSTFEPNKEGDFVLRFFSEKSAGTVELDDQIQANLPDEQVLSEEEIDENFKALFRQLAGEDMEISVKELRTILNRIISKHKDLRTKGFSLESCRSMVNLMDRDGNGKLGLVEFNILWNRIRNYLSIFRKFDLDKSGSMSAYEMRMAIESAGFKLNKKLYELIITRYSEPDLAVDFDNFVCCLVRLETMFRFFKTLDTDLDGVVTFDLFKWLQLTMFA

Homo sapiens [4] = species: Homo sapiens; test: Selectivity ratio, ratio of Ki for CatB (unknown origin) to Ki for Cal1 (unknown origin)
Homo sapiens [5] = species: Homo sapiens; test: Selectivity ratio, ratio of Ki for CatL (unknown origin) to Ki for Cal1 (unknown origin)
[6] = Intrinsic clearance in human liver microsomes; format: ADME, Microsome; conditions: read-out: CLH
[7] = Intrinsic clearance in rat liver microsomes; format: ADME, Microsome; conditions: read-out: CLH
[8] = Intrinsic clearance in human liver cytosol; format: ADME, subcellular; conditions: read-out: CLH
[9] = Intrinsic clearance in rat liver microsomes; conditions: read-out: CLH

Selectivity ratio [1]	Selectivity ratio (Homo sapiens [2])	Ki [3] [µM]	Selectivity ratio (Homo sapiens [4])	Selectivity ratio (Homo sapiens [5])	microsomal CLint [6] [µL/min/mg]	microsomal CLint [7] [µL/min/mg]	microsomal CLint [8] [µL/min/mg]	microsomal CLint [9] [µL/min/mg]	SMILES
127	33	0.057	5	41	–	–	–	–	NC(=O)C(=O)C(Cc1ccccc1)NC(=O)[C@H]1CCC(=O)N1Cc1ccccc1OC(F)(F)F (mixture of isomers)
60	85	0.165	55	44	< 23	< 23	4	–	CCNC(=O)C(=O)C(Cc1ccccc1)NC(=O)[C@H]1CCC(=O)N1Cc1ccccc1 (mixture of isomers)
2	4	0.101	72	3	–	–	–	–	CN1C[C@H](C(=O)NC(Cc2ccccc2)C(=O)C(N)=O)N(Cc2ccccc2)C1=O (mixture of isomers)
> 200	> 200	0.05	22	17	< 1	–	> 70	> 100	O=C(NC1CC1)C(=O)C(Cc1ccccc1)NC(=O)[C@H]1CCC(=O)N1Cc1ccccc1OC(F)(F)F (some centres not stated)
11	6	> 1.35	28	7	–	–	–	–	NC(=O)C(=O)C(Cc1ccccc1)NC(=O)[C@H]1CCC(=O)N1c1ccccc1 (mixture of isomers)
3	1	0.05	23	13	–	–	–	–	C[C@H]1C[C@H](C(=O)NC(Cc2ccccc2)C(=O)C(N)=O)N(Cc2ccccc2)C1=O (mixture of isomers)
–	–	0.545	–	–	2	–	42	58	O=C(NC1CC1)C(=O)C(Cc1ccccc1)NC(=O)[C@H]1CCC(=O)N1C1Cc2ccccc2C1 (some centres not stated)
> 100	109	0.09	33	162	> 1	–	> 70	> 100	O=C(NC1CC1)C(=O)C(Cc1ccccc1)NC(=O)[C@H]1CCC(=O)N1Cc1ccccc1C(F)(F)F (some centres not stated)
286	70	0.048	104	34	> 70	> 100	3	–	O=C(NCc1ccc(F)cc1)C(=O)C(Cc1ccccc1)NC(=O)[C@H]1CCC(=O)N1Cc1ccccc1 (some centres not stated)
56	4	0.064	14	21	–	–	–	–	NC(=O)C(=O)C(Cc1ccccc1)NC(=O)[C@H]1CCCC(=O)N1Cc1ccccc1 (mixture of isomers)
> 400	88	0.07	296	37	> 70	> 100	5	–	O=C(Nc1ccccc1)C(=O)C(Cc1ccccc1)NC(=O)[C@H]1CCC(=O)N1Cc1ccccc1 (some centres not stated)
7	2	0.268	56	12	–	–	–	–	NC(=O)C(=O)C(Cc1ccccc1)NC(=O)C1CCS(=O)(=O)N1Cc1ccccc1 (mixture of isomers)
7	7	1.35	23	7	–	–	–	–	CC(C)(C)CN1C(=O)CC[C@@H]1C(=O)NC(Cc1ccccc1)C(=O)C(N)=O (mixture of isomers)
85	84	0.026	15	11	–	–	–	–	NC(=O)C(=O)C(Cc1ccccc1)NC(=O)[C@H]1CCC(=O)N1Cc1cccc(C(F)(F)F)c1 (mixture of isomers)
13	2	0.082	15	4	–	–	–	–	NC(=O)C(=O)C(Cc1ccccc1)NC(=O)c1cccc(=O)n1Cc1ccccc1 (configuration not stated)
35	13	0.18	16	9	–	–	–	–	NC(=O)C(=O)C(Cc1ccccc1)NC(=O)[C@H]1CCC(=O)N1Cc1ccncc1 (mixture of isomers)
395	120	0.036	51	387	–	–	–	–	COc1cccc(C(F)(F)F)c1CN1C(=O)CC[C@@H]1C(=O)NC(Cc1ccccc1)C(=O)C(N)=O (mixture of isomers)
2	17	0.528	5	6	–	–	–	–	NC(=O)C(=O)C(Cc1ccccc1)NC(=O)[C@@H]1CCC(=O)N1Cc1ccccc1 (mixture of isomers)
14	14	0.129	72	4	–	–	–	–	Cc1ccc(S(=O)(=O)N2CCC[C@@H]2C(=O)NC(Cc2ccccc2)C(=O)C(N)=O)cc1 (mixture of isomers)
5	< 1	0.2	8	2	–	–	–	–	NC(=O)C(=O)C(Cc1ccccc1)NC(=O)[C@H]1CCC(=O)N1CC1CCCCC1 (mixture of isomers)
> 300	18	–	10	127	–	–	–	–	NC(=O)C(=O)C(Cc1ccccc1)NC(=O)c1cccnc1-n1ccc(-c2ccc(F)cc2)n1 (configuration not stated)
–	–	4.36	–	–	–	–	–	–	CONC(=O)C(=O)C(Cc1ccccc1)NC(=O)[C@H]1CCC(=O)N1Cc1ccccc1 (some centres not stated)
76	61	0.125	7	4	–	–	–	–	NC(=O)C(=O)C(Cc1ccccc1)NC(=O)[C@H]1CCC(=O)N1Cc1cccc(OC(F)(F)F)c1 (mixture of isomers)
524	102	0.059	17	65	–	–	–	–	NC(=O)C(=O)C(Cc1ccccc1)NC(=O)[C@H]1CCC(=O)N1Cc1ccccc1C(F)(F)F (mixture of isomers)
> 130	93	0.073	18	57	< 1	–	> 70	> 100	O=C(NC1CC1)C(=O)C(Cc1ccccc1)NC(=O)[C@H]1CCC(=O)N1Cc1ccccc1Cl (some centres not stated)
41	6	0.046	4	21	–	–	–	–	CCCCC(NC(=O)[C@H]1CCC(=O)N1Cc1ccccc1)C(=O)C(N)=O (mixture of isomers)
130	27	0.11	66	20	37	> 100	1	–	O=C(NC1CCC1)C(=O)C(Cc1ccccc1)NC(=O)[C@H]1CCC(=O)N1Cc1ccccc1 (some centres not stated)
–	–	9.7	–	–	< 1	–	< 23	< 23	O=C1CC[C@H](C(=O)NC(Cc2ccccc2)C(=O)C(=O)NC2CC2)N1 (some centres not stated)

SMILES	Selectivity ratio [1]	Selectivity ratio (Homo sapiens [2])	Ki [3] [µM]	Selectivity ratio (Homo sapiens [4])	Selectivity ratio (Homo sapiens [5])	microsomal CLint [6] [µL/min/mg]	microsomal CLint [7] [µL/min/mg]	microsomal CLint [8] [µL/min/mg]	microsomal CLint [9] [µL/min/mg]
Cn1cc(CN2C(=O)CC[C@@H]2C(=O)NC(Cc2ccccc2)C(=O)C(=O)NC2CN2)cn1 (some centres not stated)	–	–	0.53	–	–	–	–	27	39
